Assay results published in patent US5989555A, “Extracts of Larrea tridentata having antiviral activity and their use for treating viral infections” (priority 1996, dated 1999).
Values joined by “and” are separate entries in the source; they are usually repeats but may differ in a detail not shown here. Identical values can stand only once.

Assays:
HIV-LTR = test: in vitro HIV gene transcription assay (Hela whole-cell extract, pLTR-1CAT template); assay type: biochemical, HIV-1; conditions: for CPM of run off transcription: 329 nt run off, DMSO control 625; for % Transcription (% T): DMSO control = 100
Description: This procedure was utilized to test lignans from the creosote bush including Rev.10:7 lignans (FB3 and FB5).
The inhibitory activity of the lignans prepared by the large scale isolation described in FIG. 6 is shown. The activity of the cyclolignans FB3 and FB5 is highlighted. Compounds FB1, FB2 and FB4 were each tested at 100, 120, 140 μg/ml. Rev.10:7 lignans (FB3 and FB5) were tested only at 100, 120 μg/ml.
The DNA used as template was the plasmid pLTR-1CAT, which contains HIV-LTR (-453 to +126) fused to the prokaryotic chloramphenicol acetyltransferase (CAT) gene. Unlabeled nucleoside triphosphates were from Pharmacia, and [α-^32 P]UTP (400 Ci/mmol) from Amersham.
DNA digests were then subjected to twice phenol-chloroform-isoamyl alcohol […] extractions and subsequently precipitated by ethanol. Hela whole-cell extracts (Manley extract) containing the polymerase and the transcription factors was prepared as previously described (Manley et al., Proc. Acad. Sci. USA 77:3855-3859 (1988)).
The transcription assay has been previously described (Bohan et al., Gene Expression 2:391-407 (1992)). Extracts prepared by the method of Manley, described above, (40 μg/reaction) and DNA template (0.4 μg/reaction)were preincubated with 0.4 μl of various concentrations of test compounds for 15 min at 30° C. The in vitro transcription buffer of Manley extract contained 10 mM HEPES (pH 7.9), 50 mM KCl, 0.5 mM EDTA, 1.5 mM […], 6.25 mM MgCl2, and 8.5% glycerol. Unlabeled nucleoside triphosphates and [α-^32 P]UTP (400 Ci/mmol) were mixed and added to the reaction mixture. The final volume of the reaction was brought to 15 μl followed by 1 hour incubation at 30° C. as illustrated in FIG. 9.
The transcription reaction was terminated by addition of 300 μl of stop solution (20 mM tris-HCl (pH 7.8), 150 mM NaCl, and 0.2% SDS), and extracted with equal volume of phenol. RNA in the aqueous phase was precipitated with 2.5 volumes of EtOH and 0.1 volume of 3 M sodium acetate. Following centrifugation, RNA pellets were washed with EtOH, dried and resuspended in 15 μl of denaturation mix containing 50% formamide:50% of 2×TBE, Xylene cyanol and bromophenol blue. The mixture was heated at 90° C. for 3 min, and electrophoresed at 400 V in 4% polyacrylamide (19:1 acrylamide:bisacrylamide) gel containing 7 M urea (prerun at 200 V for 30 min) and 1×TBE. The gel was exposed to Kodak XR-5 film at -70° C. with intensifying screens for autoradiography. Table 4 illustrates the same results in numerical form after radioactivity counts of the 329 nt run off transcription spots.

HIV-1 Tat protein = test: cells; assay type: cell-based; conditions: Table 3, samples run in duplicate, each value mean of two determinations; for inhibition at 10 µg/mL / inhibition at 30 µg/mL: Human immunodeficiency virus 1, COS; for inhibition at 10 µg/mL: read-out: % Inhibition of Tat Transactivation, 10 μg/ml; for inhibition at 30 µg/mL: read-out: % Inhibition of Tat Transactivation, 30 μg/ml
Description: […] P. Loeffler and J. P. Behr, Meth. Enzymol. 217:599 (1993)). Cells were incubated for 12-15 hours after transfection before the extract was added at the various concentrations noted. The cultures were incubated for 48 hours, after which 250 μl of the culture supernatant was assayed for SEAP activity as described in Example 4.
The SEAP Assay. The "SEcreted Alkaline Phosphatase" assay for Tat transactivation has been described previously (Berger et al., Gene 66:1-10, 1988; Bohan et al., Gene Expression 2(4):391-407, 1992). The details of the entire procedure for the SEAP inhibition assay as used herein have been described (Gnabre et al. Journal of Chromatography A 719:353-364 (1996)).
The secreted alkaline phosphatase analysis was performed as originally described by Berger et al. In this assay, a DNA expression vector wherein a structural gene encoding a secreted alkaline phosphatase is driven by an enhancer-linked promoter is transfected into target cells. The cells are then exposed to compounds which affect the binding/activation of the transcription regulatory proteins, and the amount of SEAP activity in the medium is measured.
As to the alkaline phosphatase assay, briefly, a 250-μl aliquot was removed from COS cell culture supernatants, heated at 65° C. for 5 minutes to selectively inactivate endogenous phosphatase (SEAP is heat stable) and centrifuged in a microfuge for 2 minutes. […] of 2×SEAP assay buffer (1.0 M diethanolamine, pH 9.8; 0.5 mM MgCl2; 10 mM L-homoarginine) was added to 100-μl aliquot of the samples. The solution was mixed and transferred into a 96-well flat-bottom culture dish (Corning). Twenty μl of pre-warmed substrate solution (120 mM p-nitrophenylphosphate dissolved in 1×SEAP assay buffer) were dispensed with a multipipeter into each well containing the reaction mixture. The A405 of the reaction was read at 5-minute intervals at 37° C. for 60 minutes using an EL340i microplate reader (Bio-tek Instruments, Inc.) with 5-second automatic shakings before each reading. The change in absorbance was plotted against time in the standard assay of SEAP induction. In the drug screening assay, the percent inhibition of SEAP expression was calculated at its 30 min endpoint as follows:
% Inhibition=100-[(CT^+ -C^+)/(CT^- -C^-)]×100
The 3-Magi extract was monitored by SiO2 TLC with cerium sulfate charring, 2% CeSO4 (w/V) in 5.6% H2 SO4 (v/v), and by the SEAP assay for anti Tat-TRS activity. For the SEAP assay, test materials were dissolved in 10% DMSO solution made in calcium-free, magnesium-free PBS (Ca--Mg-free PBS). The suspension was centrifuged and the stock solution (10 mg/ml) was filter-sterilized using a Millex-GS […] filter (Millipore). Appropriate dilutions of the stock solution were prepared in a final DMSO concentration of 0.2% in Ca--Mg-free PBS to obtain the various concentrations of test compounds.
The 3-Magi extract prepared as in Examples 1 and 2 was assayed by the SEAP assay for anti Tat-TRS activity. […] Briefly, a day before DNA transfection, Linbro® 24 flat bottom wells of 17-mm diameter plates were pretreated with 0.5 ml sterile solution of 0.1% gelatin. The plates were kept in a tissue culture hood for 1 hour (all transfection steps were performed in the hood, unless otherwise stated). The gelatin solution was aspirated and the plates were washed with 0.5 ml of Iscove's Modified Delbecco's Medium (IMDM) supplemented with 10% fetal calf serum and antibiotics (complete medium). COS cells were seeded at a density of ≈1.5×10^5 cells per 17-mm plate and incubated in a humidified 95% air/5% CO2 incubator at 37° C. DNA transfection was performed at 50-60% cell confluency.

[1] = 140 μg/ml, estimated from Kodak film of gel after 3 day exposure

| Compound | % Inhibitor (100 - % T) (HIV-LTR; 100 μg/ml) | CPM of run off transcription (HIV-LTR; 100 μg/ml) | % Transcription (% T) (HIV-LTR; 100 μg/ml) | % Inhibitor (100 - % T) (HIV-LTR; 120 μg/ml) | CPM of run off transcription (HIV-LTR; 120 μg/ml) | % Transcription (% T) (HIV-LTR; 120 μg/ml) | % Inhibition of Tat Transactivation (HIV-1 Tat protein; 30 μg/ml) | % Inhibitor (100 - % T) (HIV-LTR; [1]) | % Inhibition of Tat Transactivation (HIV-1 Tat protein; 10 μg/ml) | inhibition at 10 µg/mL (HIV-1 Tat protein) | inhibition at 30 µg/mL (HIV-1 Tat protein) |
| --- | --- | --- | --- | --- | --- | --- | --- | --- | --- | --- | --- |
| 3'-demethoxy-6-dehydroxy-8-O-demethoxylisoguaiacin [FB3] | 73% | 169 CPM | 27% | 91% | 55 CPM | 9% | 69% and 59% | – | – | – | – |
| COc1ccc(C[C@@H](C)[C@@H](C)Cc2ccc(O)c(O)c2)cc1O [FB1, 4'-O-methyl-NDGA] | 0% | 917 CPM | 147% | 0% | 804 CPM | 129% | 99% | > 50% | 82% | 86% | 100% |
| COc1cc(CC(C)C(C)Cc2ccc(O)c(O)c2)ccc1O (stereo not drawn) [FB2, 3'-O-methyl-NDGA] | – | 972 CPM | 155% | 0% | 661 CPM | 106% | – | > 90% | 86% | 75% | 100% |
| C[C@H]1[C@H](c2ccc(O)cc2)c2cc(O)c(O)cc2C[C@H]1C [FB5, 3'-demethoxy-6-O-demethoxylisoguaiacin] | 40% | 373 CPM | 60% | 58% | 264 CPM | 42% | 87% | – | – | 63% | 84% |
